Assay results taken from US9776979B2, “EBI2 modulators” (Sanford-Burnham Medical Research Institute, priority 2013, dated 2017).
Like-named read-outs stand apart in the source and are kept apart here.

Target: EBI2 (Homo sapiens, UniProt P32249)
Assay: Cell-based luminescent assay (EBI2 modulation)
Procedure: Cell-Based Luminescent Assay
To assess EBI2 modulation, the compounds described herein were assayed in the following cell-based luminescent assay:
1) Plated 600 cells/well in 4 uL of assay media into columns 1-48 of a 1536-well assay plate, using a liquid dispenser.
2) Centrifuged plates at 1000 rpm for 1 minute and covered with lids.
3) Incubated overnight at 37° C., 100% relative humidity, 5% CO2.
1) Centrifuged compound plates containing compounds described herein at 500 rpm for 1 minute.
2) Added compounds into assay plate col 5-48 to final concentration 4-5 uM. Added matching amount of DMSO to positive and negative control wells in columns 1-4.
3) Dispensed 2 ul/well of assay media to columns 1-2 for the positive control wells.
4) Added 2 ul/well of 400 nM 7a,25-OHC (final assay concentration=80 nM) in assay media to columns 3-48 for the negative control and test compound wells.
5) Centrifuged plates at 1000 rpm for 1 minute and re-lid plates.
6) Incubated plates at 37° C., 100% relative humidity, 5% CO2 for 60 minutes.
7) Following 60 minute incubation, delivered 2.5 uL of Detection Reagent solution to each assay plate (Columns 1-48) using a liquid handler.
8) Centrifuged plates at 2000 rpm for 2 minutes and re-lid plates.
9) Incubated plates for 60 minutes at 25 degrees in the dark.
10) Read plates using the Viewlux, Envision or other suitable plate reader using a luminescence detection.
The experimental values were normalized by the difference between values from neutral and stimulator control wells in each plate. Then normalized data was corrected to remove systematic plate patterns due to artifacts such as dispensing tip issues etc.

[1] = cell-based luminescence, 7a,25-OHC final assay concentration 80 nM, 60 minutes incubation, read-out: IC50

EBI2, sequence (P32249 whole entry): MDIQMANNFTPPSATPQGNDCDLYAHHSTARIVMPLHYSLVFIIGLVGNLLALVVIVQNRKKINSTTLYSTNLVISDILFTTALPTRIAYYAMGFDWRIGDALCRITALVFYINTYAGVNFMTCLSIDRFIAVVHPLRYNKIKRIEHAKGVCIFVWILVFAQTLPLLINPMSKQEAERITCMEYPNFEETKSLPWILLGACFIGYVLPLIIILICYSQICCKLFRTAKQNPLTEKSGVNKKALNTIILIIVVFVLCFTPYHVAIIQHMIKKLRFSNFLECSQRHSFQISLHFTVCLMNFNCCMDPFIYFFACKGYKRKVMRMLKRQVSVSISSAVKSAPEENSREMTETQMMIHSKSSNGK

Molecule | IC50 [1] | IC50
4-{[4-fluoro-2-(trifluoromethyl)phenyl]methyl}piperazinyl 5-(trifluoromethyl)indol-2-yl ketone [Compound C418] | 100 to 500 nM | 
4-{[4-fluoro-3-(trifluoromethyl)phenyl]methyl}piperazinyl 5-(trifluoromethyl)indol-2-yl ketone [Compound C415] | 100 to 500 nM | 
4-{[(4-bromophenyl)sulfonyl]amino}piperidyl 5-chloroindol-2-yl ketone [Compound C306] | < 100 nM | 
5-bromoindol-2-yl 4-[(4-chlorophenyl)carbonyl]piperazinyl ketone [Compound C85] | < 100 nM | 
5-bromoindol-2-yl 4-[(4-chlorophenyl)methyl]piperazinyl ketone [Compound C303] | < 100 nM | 
5-chloroindol-2-yl 4-[(4-(3-pyridyl)phenyl)carbonyl]piperazinyl ketone [Compound C254] | < 100 nM | 
5-chloroindol-2-yl 4-{[4-(4-chlorophenyl)phenyl]sulfonyl}piperazinyl ketone [Compound C172] | 500 to 5000 nM | 
5-methylindol-2-yl 4-(3-pyridylmethyl)piperazinyl ketone [Compound C458] | 100 to 500 nM | 
5-methylindol-2-yl 4-(phenylethyl)piperazinyl ketone [Compound C148] | < 100 nM | 
5-methylindol-2-yl 4-benzylpiperazinyl ketone [Compound C376] | < 100 nM | 
6-bromoindol-2-yl 4-[(4-chlorophenyl)carbonyl]piperazinyl ketone [Compound C239] | < 100 nM | 
6-bromoindol-2-yl 4-[(4-chlorophenyl)methyl]piperazinyl ketone [Compound C471] | 100 to 500 nM | 
6-fluoroindol-2-yl 4-[(4-fluorophenyl)carbonyl]piperazinyl ketone [Compound C425] | 100 to 500 nM | 
O=C(/C=C/c1ccc(Br)cc1)N1CCN(C(=O)c2ccc(Cl)cc2)CC1 [Compound C1, (E)-3-(4-bromophenyl)-1-(4-(4-chlorobenzoyl)piperazin-1-yl) prop-2-en-1-one] | < 100 nM | 
O=C(/C=C/c1ccc(Br)cc1)N1CCN(C(=O)c2ccc(P(=O)(O)O)cc2)CC1 [Compound C3, (E)-(4-(4-(3-(4-bromophenyl)acryloyl)piperazine-1-carbonyl)phenyl)phosphonic acid] | < 100 nM | 
Cc1ccc(C(=O)N2CCN(C(=O)/C=C/c3ccc(Br)cc3)CC2)cc1 [Compound C4, (2E)-3-(4-bromophenyl)-1-{4-[(4-methylphenyl)carbonyl]piperazinyl} prop-2-en-1-one] | < 100 nM | 
O=C(/C=C/c1ccc(Cl)c(Cl)c1)N1CCN(C(c2ccccc2)c2ccccc2)CC1 [Compound C5, (2E)-3-(3,4-dichlorophenyl)-1-[4-(diphenylmethyl)piperazinyl] prop-2-en-1-one] | < 100 nM | 
O=C(/C=C/c1ccc(Cl)c(Cl)c1)N1CCN(C(=O)c2ccc(C(F)(F)F)cc2)CC1 [Compound C6, (2E)-3-(3,4-dichlorophenyl)-1-(4-{[4-(trifluoromethyl)phenyl]carbonyl}piperazinyl) prop-2-en-1-one] | < 100 nM | 
COc1ccc(C(=O)N2CCN(C(=O)C#Cc3ccc(Cl)cc3)CC2)cc1 [Compound C7, 3-(4-chlorophenyl)-1-{4-[(4-methoxyphenyl)carbonyl]piperazinyl}prop-2-yn-1-one] | < 100 nM | 
COc1ccc(C(=O)N2CCN(C(=O)C#Cc3ccc(C)cc3)CC2)cc1 [Compound C8, 1-{4-[(4-methoxyphenyl)carbonyl]piperazinyl}-3-(4-methylphenyl)prop-2-yn-1-one] | < 100 nM | 
COc1ccc(C(=O)N2CCN(C(=O)C#Cc3ccc(C(F)(F)F)cc3)CC2)cc1 [Compound C9, 1-{4-[(4-methoxyphenyl)carbonyl]piperazinyl}-3-[4-(trifluoromethyl)phenyl]prop-2-yn-1-one] | < 100 nM | 

Molecule | IC50 [1] | IC50
COc1ccc(C(=O)N2CCN(C(=O)C#Cc3ccc(Br)cc3)CC2)cc1 [Compound C10, 3-(4-bromophenyl)-1-{4-[(4-methoxyphenyl)carbonyl]piperazinyl}prop-2-yn-1-one] | < 100 nM | 
COc1ccc(C(=O)N2CCN(C(=O)C=Cc3ccc(Cl)c(Cl)c3)CC2)cc1 [Compound C11, 3-(3,4-dichlorophenyl)-1-{4-[(4-methoxyphenyl)carbonyl]piperazinyl}prop-2-en-1-one] | < 100 nM | 
COc1ccc(C(=O)N2CCN(C(=O)C#Cc3ccc(Cl)c(Cl)c3)CC2)cc1 [Compound C12, 3-(3,4-dichlorophenyl)-1-{4-[(4-methoxyphenyl)carbonyl]piperazinyl}prop-2-yn-1-one] | < 100 nM | 
O=C(/C=C/c1ccc(Br)cc1)N1CCC(Nc2ccccc2)CC1 [Compound C13, (2E)-3-(4-bromophenyl)-1-[4-(phenylamino)piperidyl]prop-2-en-1-one] |  | < 100 nM
O=C(/C=C/c1ccc(Br)cc1)N1CCN(C(=O)c2ccccc2)CC1 [Compound C14, (2E)-3-(4-bromophenyl)-1-[4-(phenylcarbonyl)piperazinyl]prop-2-en-1-one] | < 100 nM | 
O=C(/C=C/c1ccc(Br)cc1)N1CCC(Nc2cc(F)cc(F)c2)CC1 [Compound C15, (2E)-1-{4-[(3,5-difluorophenyl)amino]piperidyl}-3-(4-bromophenyl)prop-2-en-1-one] |  | < 100 nM
O=C(C#Cc1ccc(Cl)cc1)N1CCN(C(=O)c2ccc(Cl)cc2)CC1 [Compound C16, 3-(4-chlorophenyl)-1-{4-[(4-chlorophenyl)carbonyl]piperazinyl}prop-2-yn-1-one] | < 100 nM | 
COc1ccc(/C=C/C(=O)N2CCN(C(c3ccccc3)c3ccccc3)CC2)cc1 [Compound C17, (2E)-1-[4-(diphenylmethyl)piperazinyl]-3-(4-methoxyphenyl)prop-2-en-1-one] | < 100 nM | 
O=C(C#Cc1cccc(Cl)c1Cl)N1CCN(C(=O)c2ccc(F)cc2)CC1 [Compound C18, 3-(2,3-dichlorophenyl)-1-{4-[(4-fluorophenyl)carbonyl]piperazinyl}prop-2-yn-1-one] | < 100 nM | 
O=C(/C=C/c1ccc(Cl)c(Cl)c1)N1CCN(C(=O)c2ccc(F)cc2)CC1 [Compound C20, (2E)-3-(3,4-dichlorophenyl)-1-{4-[(4-fluorophenyl)carbonyl]piperazinyl}prop-2-en-1-one] | < 100 nM | 
CCOc1ccc(/C=C/C(=O)N2CCN(C(c3ccccc3)c3ccccc3)CC2)cc1 [Compound C21, (2E)-1-[4-(diphenylmethyl)piperazinyl]-3-(4-ethoxyphenyl)prop-2-en-1-one] | < 100 nM | 
O=C(/C=C/c1ccc(F)cc1)N1CCN(S(=O)(=O)C2=Cc3ccccc3CC2)CC1 [Compound C22, (2E)-1-[4-(2-3,4-dihydronaphthylsulfonyl)piperazinyl]-3-(4-fluorophenyl)prop-2-en-1-one] | < 100 nM | 
O=C(/C=C/c1ccc(Cl)c(Cl)c1)N1CCN(C(=O)c2ccc(Cl)cc2)CC1 [Compound C23, (2E)-3-(3,4-dichlorophenyl)-1-{4-[(4-chlorophenyl)carbonyl]piperazinyl}prop-2-en-1-one] | < 100 nM | 
O=C(C#Cc1ccc(Cl)cc1)N1CCN(C(=O)c2ccc(F)cc2)CC1 [Compound C28, 3-(4-chlorophenyl)-1-{4-[(4-fluorophenyl)carbonyl]piperazinyl}prop-2-yn-1-one] | < 100 nM | 
O=C(/C=C/c1ccc(C(F)(F)F)cc1)N1CCN(C(c2ccccc2)c2ccccc2)CC1 [Compound C29, (2E)-1-[4-(diphenylmethyl)piperazinyl]-3-[4-(trifluoromethyl)phenyl]prop-2-en-1-one] | < 100 nM | 
O=C(/C=C/c1ccc(Br)cc1)N1CCN(Cc2cc(F)cc(F)c2)CC1 [Compound C31, (2E)-1-{4-[(3,5-difluorophenyl)methyl]piperazinyl}-3-(4-bromophenyl)prop-2-en-1-one] | < 100 nM | 
Cc1cc(CN2CCN(C(=O)/C=C/c3ccc(Br)cc3)CC2)ccc1F [Compound C32, (2E)-3-(4-bromophenyl)-1-{4-[(4-fluoro-3-methylphenyl)methyl]piperazinyl}prop-2-en-1-one] | < 100 nM | 
Cc1ccc(C#CC(=O)N2CCN(C(=O)c3ccc(Cl)cc3)CC2)cc1 [Compound C33, 1-{4-[(4-chlorophenyl)carbonyl]piperazinyl}-3-(4-methylphenyl)prop-2-yn-1-one] | < 100 nM | 
O=C(C#Cc1cccc(Cl)c1)N1CCN(C(=O)c2ccc(Cl)cc2)CC1 [Compound C34, 3-(3-chlorophenyl)-1-{4-[(4-chlorophenyl)carbonyl]piperazinyl}prop-2-yn-1-one] | < 100 nM | 
O=C(C#Cc1cccc(Cl)c1)N1CCN(C(=O)c2ccc(F)cc2)CC1 [Compound C35, 3-(3-chlorophenyl)-1-{4-[(4-fluorophenyl)carbonyl]piperazinyl}prop-2-yn-1-one] | < 100 nM | 
O=C(/C=C/c1ccc(Br)cc1)N1CCN(S(=O)(=O)c2ccc(Br)cc2)CC1 [Compound C37, (2E)-3-(4-bromophenyl)-1-{4-[(4-bromophenyl)sulfonyl]piperazinyl}prop-2-en-1-one] | < 100 nM | 
